Measured values: PubChem BioAssay (NCI)
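Here, GI50 denotes the concentration required for 50% inhibition of growth. TGI is the concentration that stops growth completely.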

Experiments:
Assay in all cases: growth of human tumour cells (NCI), 384-well format
786-0 renal = system: 786-0 renal
A498 renal = system: A498 renal
A549 NSCLC = system: A549 NSCLC
ACHN renal = system: ACHN renal
BT-549 breast = system: BT-549 breast
CAKI-1 renal = system: CAKI-1 renal
CCRF-CEM leukemia = system: CCRF-CEM leukemia
COLO 205 colon = system: COLO 205 colon
DU-145 prostate = system: DU-145 prostate
EKVX NSCLC = system: EKVX NSCLC
HCC-2998 colon = system: HCC-2998 colon
HCT-116 colon = system: HCT-116 colon
HCT-15 colon = system: HCT-15 colon
HL-60(TB) leukemia = system: HL-60(TB) leukemia
HOP-62 NSCLC = system: HOP-62 NSCLC
HOP-92 NSCLC = system: HOP-92 NSCLC
HS 578T breast = system: HS 578T breast
HT29 colon = system: HT29 colon
IGROV1 ovarian = system: IGROV1 ovarian
K-562 leukemia = system: K-562 leukemia
KM12 colon = system: KM12 colon
LOX IMVI melanoma = system: LOX IMVI melanoma
M14 melanoma = system: M14 melanoma
MALME-3M melanoma = system: MALME-3M melanoma
MCF7 breast = system: MCF7 breast
MDA-MB-231 breast = system: MDA-MB-231 breast
MDA-MB-435 melanoma = system: MDA-MB-435 melanoma
MDA-MB-468 breast = system: MDA-MB-468 breast
MOLT-4 leukemia = system: MOLT-4 leukemia
NCI-H226 lung = system: NCI-H226 lung
NCI-H23 lung = system: NCI-H23 lung
NCI-H322M lung = system: NCI-H322M lung
NCI-H460 NSCLC = system: NCI-H460 NSCLC
NCI-H522 lung = system: NCI-H522 lung
NCI/ADR-RES ovarian = system: NCI/ADR-RES ovarian
OVCAR-3 ovarian = system: OVCAR-3 ovarian
OVCAR-4 ovarian = system: OVCAR-4 ovarian
OVCAR-5 ovarian = system: OVCAR-5 ovarian
OVCAR-8 ovarian = system: OVCAR-8 ovarian
PC-3 prostate = system: PC-3 prostate
RPMI-8226 leukemia = system: RPMI-8226 leukemia
RXF 393 renal = system: RXF 393 renal
SF-268 CNS = system: SF-268 CNS
SF-295 CNS = system: SF-295 CNS
SF-539 CNS = system: SF-539 CNS
SK-MEL-28 melanoma = system: SK-MEL-28 melanoma
SK-MEL-5 melanoma = system: SK-MEL-5 melanoma
SK-OV-3 ovarian = system: SK-OV-3 ovarian
SN12C renal = system: SN12C renal
SNB-19 CNS = system: SNB-19 CNS
SNB-75 CNS = system: SNB-75 CNS
SR leukemia = system: SR leukemia
SW-620 colon = system: SW-620 colon
T-47D breast = system: T-47D breast
TK-10 renal = system: TK-10 renal
U251 glioblastoma = system: U251 glioblastoma
UACC-257 melanoma = system: UACC-257 melanoma
UO-31 renal = system: UO-31 renal

`Cn1cc(-c2ccc3nnc(C(F)(F)c4ccc5ncccc5c4)n3n2)cn1` was tested, and the GI50 ([…]-0 renal) was 43.9 µM, the TGI (786-0 renal) was greater than 100 µM and the GI50 (A498 renal) was 63.2 µM. The TGI (A498 renal) was greater than 100 µM, the GI50 (A549 NSCLC) was 85.5 µM and the TGI (A549 NSCLC) was greater than 100 µM. It also gave a GI50 (ACHN renal) of 46.1 µM, a TGI (ACHN renal) greater than 100 µM and a GI50 (BT-549 breast) of 38.1 µM. It also gave a TGI (BT-549 breast) greater than 100 µM, a GI50 (CAKI-1 renal) of 46.4 µM and a TGI (CAKI-1 renal) greater than 100 µM. For the same compound, the GI50 (CCRF-CEM leukemia) was 48.5 µM, the TGI (CCRF-CEM leukemia) was greater than 100 µM and the GI50 (COLO 205 colon) was 99 µM. The TGI (COLO 205 colon) was greater than 100 µM, the GI50 (DU-145 prostate) was 59.1 µM and the TGI (DU-145 prostate) was greater than 100 µM. For the same compound, the GI50 (EKVX NSCLC) was 52.6 µM, the TGI (EKVX NSCLC) was greater than 100 µM and the GI50 (HCC-2998 colon) was 49.9 µM. It also gave a TGI (HCC-2998 colon) greater than 100 µM, a GI50 (HCT-116 colon) of 49.2 µM and a TGI (HCT-116 colon) greater than 100 µM. The GI50 (HCT-15 colon) was 60.5 µM, the TGI (HCT-15 colon) was greater than 100 µM and the GI50 (HL-60(TB) leukemia) was 36.3 µM. It also gave a TGI (HL-60(TB) leukemia) greater than 100 µM, a GI50 (HOP-62 NSCLC) of 41.2 µM and a TGI (HOP-62 NSCLC) greater than 100 µM. It also gave a GI50 (HOP-92 NSCLC) of 39.7 µM, a TGI (HOP-92 NSCLC) greater than 100 µM and a GI50 (HS 578T breast) of 35.3 µM. For the same compound, the TGI (HS 578T breast) was greater than 100 µM, the GI50 (HT29 colon) was 95.3 µM and the TGI (HT29 colon) was greater than 100 µM. It also gave a GI50 (IGROV1 ovarian) of 58.2 µM, a TGI (IGROV1 ovarian) greater than 100 µM and a GI50 (K-562 leukemia) of 53.6 µM. It also gave a TGI (K-562 leukemia) greater than 100 µM, a GI50 (KM12 colon) of 47.8 µM and a TGI (KM12 colon) greater than 100 µM. It also gave a GI50 (LOX IMVI melanoma) of 68.5 µM, a TGI (LOX IMVI melanoma) greater than 100 µM and a GI50 (M14 melanoma) greater than 100 µM. It also gave a TGI (M14 melanoma) greater than 100 µM, a GI50 (MALME-3M melanoma) of 65 µM and a TGI (MALME-3M melanoma) greater than 100 µM. For the same compound, the GI50 (MCF7 breast) was 41.8 µM, the TGI (MCF7 breast) was greater than 100 µM and the GI50 (MDA-MB-231 breast) was 53.5 µM. It also gave a TGI (MDA-MB-231 breast) greater than 100 µM, a GI50 (MDA-MB-435 melanoma) greater than 100 µM and a TGI (MDA-MB-435 melanoma) greater than 100 µM. It also gave a GI50 (MDA-MB-468 breast) of 10.2 µM, a TGI (MDA-MB-468 breast) of 59.6 µM and a GI50 (MOLT-4 leukemia) of 17.6 µM. It also gave a TGI (MOLT-4 leukemia) of 36.4 µM, a GI50 (NCI-H226 lung) of 56.3 µM and a TGI (NCI-H226 lung) greater than 100 µM. It also gave a GI50 (NCI-H23 lung) of 25 µM, a TGI (NCI-H23 lung) greater than 100 µM and a GI50 (NCI-H322M lung) of 62.9 µM. It also gave a TGI (NCI-H322M lung) greater than 100 µM, a GI50 (NCI-H460 NSCLC) of 45.8 µM and a TGI (NCI-H460 NSCLC) greater than 100 µM. It also gave a GI50 (NCI-H522 lung) of 41.6 µM, a TGI (NCI-H522 lung) greater than 100 µM and a GI50 (NCI/ADR-RES ovarian) of 41.4 µM. It also gave a TGI (NCI/ADR-RES ovarian) greater than 100 µM, a GI50 (OVCAR-3 ovarian) of 61.8 µM and a TGI (OVCAR-3 ovarian) greater than 100 µM. For the same compound, the GI50 (OVCAR-4 ovarian) was 59.9 µM, the TGI (OVCAR-4 ovarian) was greater than 100 µM and the GI50 (OVCAR-5 ovarian) was 59.8 µM. For the same compound, the TGI (OVCAR-5 ovarian) was greater than 100 µM, the GI50 (OVCAR-8 ovarian) was 61.4 µM and the TGI (OVCAR-8 ovarian) was greater than 100 µM. The GI50 (PC-3 prostate) was 52.9 µM, the TGI (PC-3 prostate) was greater than 100 µM and the GI50 (RPMI-8226 leukemia) was 23.7 µM. The TGI (RPMI-8226 leukemia) was 97.8 µM, the GI50 (RXF 393 renal) was 25.2 µM and the TGI (RXF 393 renal) was 72.7 µM. For the same compound, the GI50 (SF-268 CNS) was 98.1 µM, the TGI (SF-268 CNS) was greater than 100 µM and the GI50 (SF-295 CNS) was 2.06 µM. It also gave a TGI (SF-295 CNS) greater than 100 µM, a GI50 (SF-539 CNS) of 56.3 µM and a TGI (SF-539 CNS) greater than 100 µM. For the same compound, the GI50 (SK-MEL-28 melanoma) was greater than 100 µM, the TGI (SK-MEL-28 melanoma) was greater than 100 µM and the GI50 (SK-MEL-5 melanoma) was 29.7 µM. The TGI (SK-MEL-5 melanoma) was greater than 100 µM, the GI50 (SK-OV-3 ovarian) was 75.5 µM and the TGI (SK-OV-3 ovarian) was greater than 100 µM. The GI50 (SN12C renal) was 45.2 µM, the TGI (SN12C renal) was greater than 100 µM and the GI50 (SNB-19 CNS) was 67.3 µM. For the same compound, the TGI (SNB-19 CNS) was greater than 100 µM, the GI50 (SNB-75 CNS) was 43.1 µM and the TGI (SNB-75 CNS) was greater than 100 µM. It also gave a GI50 (SR leukemia) of 24.2 µM, a TGI (SR leukemia) greater than 100 µM and a GI50 (SW-620 colon) greater than 100 µM. It also gave a TGI (SW-620 colon) greater than 100 µM, a GI50 (T-47D breast) of 41.1 µM and a TGI (T-47D breast) greater than 100 µM. It also gave a GI50 (TK-10 renal) of 47.6 µM, a TGI (TK-10 renal) greater than 100 µM and a GI50 (U251 glioblastoma) of 66.3 µM. It also gave a TGI (U251 glioblastoma) greater than 100 µM, a GI50 (UACC-257 melanoma) greater than 100 µM and a TGI (UACC-257 melanoma) greater than 100 µM. The GI50 (UO-31 renal) was 58.6 µM and the TGI (UO-31 renal) was greater than 100 µM.
